How the values were obtained:
Test in all cases: relative viability (nuclei count vs DMSO), 5 days (fraction); higher = more cells survive
[1] = compound: C1CNCCC1C2=CC(=NN2)C3=CC=NC=C3 + Cc1nc(NC(=O)N2CCC[C@H]2C(N)=O)sc1-c1ccnc(C(C)(C)C(F)(F)F)c1 [Alpelisib] (partner 2 µM)
Outline: (§1)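 Values are medians from duplicate plates. Each reflects relative viability, defined as the nuclei count of treated wells over that of vehicle wells. Lung cancer cell lines in 1536-well plates were pin-tool dosed one day after seeding with one drug alone or with a fixed anchor-drug dose plus five library-drug doses (not always all listed) in √10 steps, then fixed, stained and imaged at 4× after 5 days.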

[2] = compound: C[C@@H](N)c1ccc(C(=O)Nc2ccnc3[nH]ccc23)cc1 + COc1cccc2cc(-c3nc([C@H]4CC[C@H](C(=O)O)CC4)n4ncnc(N)c34)[nH]c12 [OSI-027] (partner 0.5 µM)
Outline: as §1

[3] = compound: C[C@@H](N)c1ccc(C(=O)Nc2ccnc3[nH]ccc23)cc1 + Nc1nc2[nH]cc(CCc3ccc(C(=O)N[C@@H](CCC(=O)O)C(=O)O)cc3)c2c(=O)[nH]1 [Pemetrexed] (partner 0.2 µM)
Outline: as §1

[4] = compound: C1CNCCC1C2=CC(=NN2)C3=CC=NC=C3 + Cc1nc(Nc2ncc(C(=O)Nc3c(C)cccc3Cl)s2)cc(N2CCN(CCO)CC2)n1 [Dasatinib] (partner 0.075 µM)
Outline: as §1

Row | Cell Line | relative viability ([1]; first compound 0.08 µM) | relative viability ([1]; first compound 0.8 µM) | relative viability ([1]; first compound 2.53 µM) | relative viability ([1]; first compound 8 µM) | relative viability ([2]; first compound 0.04 µM) | relative viability ([2]; first compound 0.1265 µM) | relative viability ([2]; first compound 0.4 µM) | relative viability ([2]; first compound 1.265 µM) | relative viability ([2]; first compound 4 µM) | relative viability ([3]; first compound 0.04 µM) | relative viability ([3]; first compound 0.1265 µM) | relative viability ([3]; first compound 0.4 µM) | relative viability ([3]; first compound 1.265 µM) | relative viability ([3]; first compound 4 µM) | relative viability ([4]; first compound 0.08 µM) | relative viability ([4]; first compound 0.8 µM) | relative viability ([4]; first compound 2.53 µM) | relative viability ([4]; first compound 8 µM)
1 | Calu-6 | 0.896 | 1.05 | 1.03 | 1.04 | – | – | – | – | – | – | – | – | – | – | – | – | – | –
2 | NCI-H1648 | – | – | – | – | 0.265 | 0.301 | 0.267 | 0.289 | 0.346 | 1.12 | 0.933 | 1.03 | 1.12 | 1.28 | – | – | – | –
3 | NCI-H1623 | – | – | – | – | 0.559 | 0.418 | 0.502 | 0.469 | 0.503 | – | – | – | – | – | 0.574 | 0.38 | 0.557 | 0.563
4 | NCI-H3122 | 0.87 | 0.81 | 0.799 | 0.753 | 1.2 | 1.14 | 1.06 | – | 1.1 | 0.202 | 0.216 | 0.203 | 0.21 | 0.222 | 0.605 | 0.879 | 0.983 | 0.859
5 | NCI-H2347 | 0.989 | 0.938 | 1.17 | 1.01 | 0.502 | 0.494 | 0.414 | – | 0.631 | 0.41 | 0.424 | 0.452 | 0.388 | 0.403 | 0.352 | 0.288 | 0.307 | 0.332
6 | HCC-44 | 0.815 | 0.7 | 0.794 | 0.794 | 0.37 | 0.433 | 0.644 | 0.19 | 0.482 | 0.594 | 0.603 | 0.636 | 0.707 | 0.627 | – | – | – | –
7 | HCC-78 | 0.344 | – | 0.37 | 0.411 | 0.54 | 0.389 | 0.476 | 0.388 | 0.544 | 0.942 | 0.928 | 0.906 | 0.98 | 0.963 | 0.352 | 0.257 | 0.356 | 0.369
8 | COR-L23 | 0.821 | 0.925 | 0.969 | 0.736 | 0.775 | 0.838 | 0.755 | 0.748 | 0.669 | 0.204 | 0.195 | 0.188 | 0.201 | 0.178 | 0.532 | 0.417 | 0.518 | 0.469
9 | NCI-H1993 | 0.654 | 0.668 | 0.699 | 0.669 | 0.529 | 0.556 | 0.574 | 0.577 | 0.603 | 0.652 | 0.653 | – | 0.632 | 0.642 | 0.538 | 0.541 | 0.56 | 0.667
10 | NCI-H2405 | 0.792 | 0.62 | 0.875 | 0.686 | 0.594 | 0.742 | 0.695 | 0.542 | 0.36 | – | 1.09 | 0.918 | 0.567 | 0.306 | 0.201 | 0.213 | 0.187 | 0.202
11 | NCI-H2126 | 0.761 | 0.634 | 0.777 | 0.752 | 0.9 | 0.654 | 0.797 | – | 0.944 | 0.697 | 0.684 | 0.764 | 0.57 | 0.738 | 0.504 | 0.613 | 0.655 | 0.661
12 | NCI-H2342 | – | – | – | – | 0.711 | 0.694 | 0.763 | 0.655 | 0.675 | 0.781 | 0.803 | 0.792 | 0.847 | 0.794 | 0.343 | 0.268 | 0.357 | 0.41
13 | NCI-H727 | 0.478 | 0.552 | 0.542 | 0.524 | 0.832 | 0.68 | 0.719 | 0.676 | 0.852 | – | – | – | – | – | 0.489 | 0.5 | 0.33 | 0.328
14 | ABC-1 | 0.997 | 0.857 | 1.19 | 1.13 | 0.502 | 0.603 | 0.559 | – | 0.511 | – | – | – | – | – | 0.55 | 0.563 | 0.652 | 0.497
15 | NCI-H522 | – | – | – | – | 0.657 | 0.67 | 0.78 | 0.764 | 0.737 | 0.842 | 1.09 | 0.956 | 1.05 | 1.01 | 0.841 | 0.869 | 0.896 | 0.967
16 | SW 900 | – | – | – | – | 0.657 | 0.608 | 0.596 | 0.688 | 0.824 | 0.465 | 0.478 | 0.475 | 0.5 | 0.474 | 0.568 | 0.445 | 0.519 | 0.452
17 | EBC-1 | 0.926 | 0.704 | 0.819 | 0.857 | – | – | – | – | – | – | – | – | – | – | – | – | – | –
18 | NCI-H1650 | – | – | – | – | 0.825 | 0.773 | 0.761 | 0.707 | 0.664 | 0.443 | 0.394 | 0.399 | 0.349 | 0.355 | 0.262 | 0.257 | 0.356 | 0.35
19 | IA-LM | 0.834 | 0.763 | 0.762 | 0.837 | – | – | – | – | – | – | – | – | – | – | – | – | – | –
20 | NCI-H1703 | 0.345 | 0.268 | 0.347 | 0.278 | – | – | – | – | – | – | – | – | – | – | – | – | – | –

From the supplement of paper PMC10307832
